Measured values: ChEMBL document CHEMBL1153119, “Design and synthesis of orally-active and selective azaindane 5HT2c agonist for the treatment of obesity” (Bioorg Med Chem Lett, 2010)
Active and inactive are the calls of the source. No cut-off for these calls is given here.

Key:
[1] = target: T1, 5-hydroxytryptamine receptor 2C (Homo sapiens, UniProt P28335); experiment: Agonist activity against human 5HT2C receptor by FLIPR assay; assay type: functional
T1 sequence (P28335 whole entry): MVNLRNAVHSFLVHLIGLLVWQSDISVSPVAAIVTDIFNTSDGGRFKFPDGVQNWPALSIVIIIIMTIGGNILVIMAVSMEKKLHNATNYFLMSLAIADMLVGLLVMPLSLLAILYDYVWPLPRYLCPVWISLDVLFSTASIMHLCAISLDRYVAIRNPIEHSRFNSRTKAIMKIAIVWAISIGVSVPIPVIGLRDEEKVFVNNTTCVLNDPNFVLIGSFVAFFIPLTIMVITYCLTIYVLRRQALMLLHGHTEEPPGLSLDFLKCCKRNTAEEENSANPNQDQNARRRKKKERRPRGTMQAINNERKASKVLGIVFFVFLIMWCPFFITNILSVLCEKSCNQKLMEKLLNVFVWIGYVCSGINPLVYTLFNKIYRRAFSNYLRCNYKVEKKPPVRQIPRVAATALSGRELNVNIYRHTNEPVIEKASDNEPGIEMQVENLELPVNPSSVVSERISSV

[2] = target: T2, 5-hydroxytryptamine receptor 2C (Homo sapiens) (UniProt P28335); experiment: Agonist activity against human 5HT2C receptor by FLIPR assay
T2 sequence (whole entry): T1 sequence (P28335 whole entry)

[3] = target: T1, 5-hydroxytryptamine receptor 2C; experiment: Antagonist activity against human 5HT2C receptor by FLIPR assay; assay type: functional
[4] = target: T3, 5-hydroxytryptamine receptor 2A (Homo sapiens, UniProt P28223); experiment: Agonist activity against human 5HT2A receptor by FLIPR assay; assay type: functional
T3 sequence (P28223 whole entry): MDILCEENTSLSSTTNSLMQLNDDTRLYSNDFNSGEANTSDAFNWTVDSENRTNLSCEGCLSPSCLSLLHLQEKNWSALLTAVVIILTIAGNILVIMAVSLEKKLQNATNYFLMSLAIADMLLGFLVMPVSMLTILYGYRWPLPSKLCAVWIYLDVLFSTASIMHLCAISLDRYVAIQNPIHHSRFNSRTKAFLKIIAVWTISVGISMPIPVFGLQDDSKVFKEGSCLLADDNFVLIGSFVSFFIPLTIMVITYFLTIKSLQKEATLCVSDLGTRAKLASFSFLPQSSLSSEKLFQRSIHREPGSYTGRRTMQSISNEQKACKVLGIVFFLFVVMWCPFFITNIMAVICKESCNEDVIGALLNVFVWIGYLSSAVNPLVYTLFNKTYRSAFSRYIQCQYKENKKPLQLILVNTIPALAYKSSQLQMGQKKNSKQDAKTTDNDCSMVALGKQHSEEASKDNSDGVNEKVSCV

[5] = target: T3, 5-hydroxytryptamine receptor 2A; experiment: Agonist activity against human 5HT2A receptor by FLIPR assay relative to 5HT; assay type: functional
[6] = target: T4, 5-hydroxytryptamine receptor 2B (Homo sapiens, UniProt P41595); experiment: Agonist activity against human 5HT2B receptor by FLIPR assay; assay type: functional
T4 sequence (P41595 whole entry): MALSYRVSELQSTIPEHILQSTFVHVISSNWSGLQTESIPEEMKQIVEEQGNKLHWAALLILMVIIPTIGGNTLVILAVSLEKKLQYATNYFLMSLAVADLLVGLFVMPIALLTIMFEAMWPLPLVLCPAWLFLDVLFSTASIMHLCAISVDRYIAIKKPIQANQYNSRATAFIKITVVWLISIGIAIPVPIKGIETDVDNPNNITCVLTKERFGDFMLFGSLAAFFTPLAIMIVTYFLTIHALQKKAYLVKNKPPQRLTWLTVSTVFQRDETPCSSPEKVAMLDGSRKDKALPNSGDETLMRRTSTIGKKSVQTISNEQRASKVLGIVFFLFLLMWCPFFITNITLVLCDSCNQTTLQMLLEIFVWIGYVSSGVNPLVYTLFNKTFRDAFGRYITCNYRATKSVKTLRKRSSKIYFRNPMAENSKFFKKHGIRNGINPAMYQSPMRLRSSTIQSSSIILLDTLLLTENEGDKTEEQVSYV

[7] = target: T4, 5-hydroxytryptamine receptor 2B; experiment: Agonist activity against human 5HT2B receptor by FLIPR assay relative to 5HT; assay type: functional
[8] = target: 5-hydroxytryptamine receptor 2A (Rattus norvegicus, UniProt P14842); experiment: Displacement of [125I]DOI from rat 5HT2A receptor expressed in mouse 3T3 cells; assay type: cell-based, NIH3T3
Chain of 5-hydroxytryptamine receptor 2A (Rattus norvegicus, UniProt P14842) (P14842 whole entry): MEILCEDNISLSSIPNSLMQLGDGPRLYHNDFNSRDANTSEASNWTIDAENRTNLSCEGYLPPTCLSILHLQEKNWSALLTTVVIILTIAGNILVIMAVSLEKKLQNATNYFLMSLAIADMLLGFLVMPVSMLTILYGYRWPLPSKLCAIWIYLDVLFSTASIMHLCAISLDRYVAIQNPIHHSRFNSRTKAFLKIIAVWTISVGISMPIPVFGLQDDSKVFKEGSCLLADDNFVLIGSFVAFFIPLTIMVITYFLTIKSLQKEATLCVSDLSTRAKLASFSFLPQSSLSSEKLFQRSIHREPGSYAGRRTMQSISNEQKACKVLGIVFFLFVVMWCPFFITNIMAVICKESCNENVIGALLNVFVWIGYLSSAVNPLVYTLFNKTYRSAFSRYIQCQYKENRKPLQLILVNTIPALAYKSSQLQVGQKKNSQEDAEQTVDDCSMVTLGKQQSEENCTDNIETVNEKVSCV

[9] = target: T4, 5-hydroxytryptamine receptor 2B; experiment: Displacement of [125I]DOI from human 5HT2B receptor expressed in CHO cells; assay type: cell-based
[10] = target: T1, 5-hydroxytryptamine receptor 2C; experiment: Displacement of [3H]5HT from human 5HT2C receptor expressed in mouse 3T3 cells by scintillation counting; assay type: cell-based, NIH3T3
[11] = target: T1, 5-hydroxytryptamine receptor 2C; experiment: Agonist activity against human 5HT2C receptor by GTPgammaS binding; assay type: functional
[12] = target: T2, 5-hydroxytryptamine receptor 2C (Homo sapiens); experiment: Agonist activity against human 5HT2C receptor by GTPgammaS binding relative to control; assay type: functional
[13] = target: T2, 5-hydroxytryptamine receptor 2C (Homo sapiens); experiment: Agonist activity against human 5HT2C receptor assessed as inositol phosphate accumulation; assay type: functional
[14] = target: T3, 5-hydroxytryptamine receptor 2A; experiment: Agonist activity against 5HT2A receptor assessed as inositol phosphate accumulation; assay type: functional
[15] = target: T4, 5-hydroxytryptamine receptor 2B; experiment: Agonist activity against 5HT2B receptor assessed as inositol phosphate accumulation; assay type: functional
[16] = target: T3, 5-hydroxytryptamine receptor 2A; experiment: Antagonist activity against 5HT2A receptor; assay type: functional
[17] = target: T4, 5-hydroxytryptamine receptor 2B; experiment: Antagonist activity against 5HT2B receptor; assay type: functional
[18] = target: Voltage-gated inwardly rectifying potassium channel KCNH2 (Homo sapiens, UniProt Q12809); experiment: Inhibition of human ERG channel
Chain of Voltage-gated inwardly rectifying potassium channel KCNH2 (Q12809 whole entry): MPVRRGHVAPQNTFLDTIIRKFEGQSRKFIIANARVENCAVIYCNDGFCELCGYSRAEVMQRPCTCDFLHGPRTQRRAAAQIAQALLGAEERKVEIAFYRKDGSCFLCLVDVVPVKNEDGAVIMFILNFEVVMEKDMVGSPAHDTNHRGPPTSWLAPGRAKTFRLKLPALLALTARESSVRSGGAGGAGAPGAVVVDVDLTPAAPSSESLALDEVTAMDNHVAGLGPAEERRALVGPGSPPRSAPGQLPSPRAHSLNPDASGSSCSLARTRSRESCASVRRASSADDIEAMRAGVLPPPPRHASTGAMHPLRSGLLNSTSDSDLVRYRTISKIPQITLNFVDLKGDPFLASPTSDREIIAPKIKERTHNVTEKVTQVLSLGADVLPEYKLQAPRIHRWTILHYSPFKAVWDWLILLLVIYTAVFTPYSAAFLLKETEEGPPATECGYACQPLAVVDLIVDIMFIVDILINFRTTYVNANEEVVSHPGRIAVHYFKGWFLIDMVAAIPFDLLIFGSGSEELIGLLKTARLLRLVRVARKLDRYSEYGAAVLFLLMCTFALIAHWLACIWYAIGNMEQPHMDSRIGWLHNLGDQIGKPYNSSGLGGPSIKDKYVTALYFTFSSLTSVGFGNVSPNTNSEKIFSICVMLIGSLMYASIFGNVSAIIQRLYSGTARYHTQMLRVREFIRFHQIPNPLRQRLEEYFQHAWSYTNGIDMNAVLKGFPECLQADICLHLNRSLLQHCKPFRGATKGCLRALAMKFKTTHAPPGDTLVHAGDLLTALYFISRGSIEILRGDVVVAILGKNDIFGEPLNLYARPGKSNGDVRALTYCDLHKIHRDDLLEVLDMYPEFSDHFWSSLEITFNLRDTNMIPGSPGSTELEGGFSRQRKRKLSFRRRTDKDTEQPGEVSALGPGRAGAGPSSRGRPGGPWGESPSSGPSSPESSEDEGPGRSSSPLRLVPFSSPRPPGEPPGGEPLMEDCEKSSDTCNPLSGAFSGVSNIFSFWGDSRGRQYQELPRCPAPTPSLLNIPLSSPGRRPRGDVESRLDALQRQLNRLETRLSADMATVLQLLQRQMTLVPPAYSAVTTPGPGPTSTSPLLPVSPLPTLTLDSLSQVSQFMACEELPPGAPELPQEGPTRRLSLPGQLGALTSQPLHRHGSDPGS

Rattus norvegicus = experiment: Antiobesity activity in Sprague-Dawley rat model assessed as reduction in food intake at 100 mg/kg, po after 2 hrs; assay type: functional; set-up: scale not given: the % may be the effect or the level left
[19] = Half life in rat microsomes at 0.3 mM; assay type: ADME, Microsome
[20] = Intrinsic clearance in rat microsomes at 0.3 mM; assay type: ADME, Microsome
[21] = Half life in rat hepatocyte at 1 mM; assay type: ADME, cell-based, Liver; conditions: hepatocytes
[22] = Intrinsic clearance in rat hepatocyte at 1 mM; assay type: ADME, cell-based, Liver; conditions: hepatocytes
[23] = Clearance in rat; assay type: ADME, organism-based; conditions: in vivo
[24] = Half life in dog microsomes at 0.3 mM; assay type: ADME, Canis lupus familiaris, Microsome
[25] = Intrinsic clearance in dog microsomes at 0.3 mM; assay type: ADME, Canis lupus familiaris, Liver, Microsome
[26] = Half life in dog hepatocyte at 1 mM; assay type: ADME, Canis lupus familiaris, Liver; conditions: hepatocytes
[27] = Intrinsic clearance in dog hepatocyte at 1 mM; assay type: ADME, tissue-based, Canis lupus familiaris, Liver; conditions: hepatocytes
[28] = Clearance in dog; assay type: ADME, organism-based, Canis lupus familiaris; conditions: in vivo
[29] = Half life in monkey microsomes at 0.3 mM; assay type: ADME, Macaca mulatta, Microsome; conditions: rhesus monkey
[30] = Intrinsic clearance in monkey microsomes at 0.3 mM; assay type: ADME, Macaca mulatta, Microsome; conditions: rhesus monkey
[31] = Half life in monkey hepatocyte at 1 mM; assay type: ADME, Macaca mulatta, Liver; conditions: rhesus monkey, hepatocytes
[32] = Intrinsic clearance in monkey hepatocyte at 1 mM; assay type: ADME, tissue-based, Macaca mulatta, Liver; conditions: rhesus monkey, hepatocytes
[33] = Clearance in monkey; assay type: ADME, organism-based, Macaca mulatta; conditions: rhesus monkey, in vivo
[34] = Half life in human microsomes at 0.3 mM; assay type: ADME, Microsome
[35] = Intrinsic clearance in human microsomes at 0.3 mM; assay type: ADME, Microsome
[36] = Half life in human hepatocyte at 1 mM; assay type: ADME, cell-based, Liver; conditions: hepatocytes
[37] = Intrinsic clearance in human hepatocyte at 1 mM; assay type: ADME, cell-based, Liver; conditions: hepatocytes
[38] = Ratio of drug uptake in brain to plasma in rat; assay type: ADME, organism-based; conditions: in vivo
[39] = Ratio of drug uptake in CSF to plasma in rat; assay type: ADME
[40] = Ratio of drug uptake in CSF to free plasma in rat; assay type: ADME, organism-based; conditions: in vivo
[41] = target: T2, 5-hydroxytryptamine receptor 2C (Homo sapiens); experiment: Antagonist activity against 5HT2c receptor; assay type: functional

Brc1cn2ccnc2c(N2CCNCC2)n1
EC50 [1]: 1360 nM
Activity [2]: 79%

Clc1nc(N2CCNCC2)c2scc(-c3ccccc3)c2n1
IC50 [3]: 540 nM

Clc1cccc(COc2nc(N3CCNCC3)nc3nc[nH]c23)c1
IC50 [3]: 410 nM

Cc1cc2c(N3CCNCC3)ncnc2o1
EC50 [1]: 660 nM
Activity [2]: 45%

Clc1nc(N2CCNCC2)c2c3c(sc2n1)CCCC3
IC50 [3]: 710 nM

c1ccc2c(N3CCNCC3)nccc2c1
IC50 [3]: 24 nM

c1nc(N2CCNCC2)c2sccc2n1
EC50 [1]: 400 nM
Activity [2]: 81%

Fc1ccc(F)c(CO[C@H]2CCc3ccc(N4CCNCC4)nc32)c1
EC50 [1]: 1.4 nM
EC50 [4]: 1500 nM
Activity [5]: 13%
EC50 [6]: 2700 nM
Activity [7]: 18%
Ki [8]: 15 nM
Ki ([9]; read-out: Ki): 153 nM
Activity [2]: 91%

Fc1cccc(O[C@H]2CCc3ccc(N4CCNCC4)nc32)c1
Ki [10]: 3 nM

CCCn1cnc2c(N3CCNCC3)ncnc21
EC50 [1]: 1250 nM
Activity [2]: 55%

Cn1cnc2nc(OCc3ccccc3)nc(N3CCNCC3)c21
IC50 [3]: > 500 nM

c1cc2c(nc1N1CCNCC1)CCCC2
EC50 [1]: 25 nM
EC50 [4]: 2200 nM
Activity [5]: 60%
Activity [7]: Active
Ki [8]: 21 nM
Ki ([9]; cho): Not Active
Activity [2]: 93%

Cc1ccc(F)cc1CO[C@H]1CCc2ccc(N3CCNC[C@H]3C)nc21
EC50 [1]: 3.4 nM
IC50 [3]: ≤ 86 nM
EC50 [11]: 1.9 nM
EC50 [4]: 630 nM
EC50 [6]: 566 nM
Emax [7]: 28%
Ki [8]: 4.4 nM
Activity [12]: 86%
Activity [13]: inactive
Activity [14]: inactive
EC50 [15]: > 10000 nM
Kb [16]: 62 nM
Kb [17]: 4 nM
IC50 [18]: 3900 nM
Activity (Rattus norvegicus): -74%
half-life [19]: 2.2 min
CLint scaled [20]: 1500 mL/min/kg
half-life [21]: 4.7 min
CLint scaled [22]: 400 mL/min/kg
clearance [23]: 90 mL/min/kg
half-life [24]: 24 min
CLint scaled [25]: 59 mL/min/kg
half-life [26]: 64 min
CLint scaled [27]: 41 mL/min/kg
clearance [28]: 34 mL/min/kg
half-life [29]: 12 min
CLint scaled [30]: 350 mL/min/kg
half-life [31]: 53 min
CLint scaled [32]: 43 mL/min/kg
clearance [33]: 8.6 mL/min/kg
half-life [34]: 44 min
CLint scaled [35]: 20 mL/min/kg
half-life [36]: 170 min
CLint scaled [37]: 5.1 mL/min/kg
ratio [38]: 3.4
Kp [39]: 0.015
ratio [40]: 0.5
Kb [41]: inactive

c1nc(N2CCNCC2)c2cc[nH]c2n1
EC50 [1]: 755 nM
Activity [2]: 91%

C[C@@H]1CNCCN1c1ccc2c(n1)[C@@H](OCc1cc(F)ccc1F)CC2
EC50 [1]: 1 nM
EC50 [4]: 1430 nM
Activity [5]: 18%
Ki [8]: 16 nM
Ki ([9]; read-out: Ki): 83 nM
Activity [2]: 96%

Clc1ccccc1O[C@@H]1CCCc2ccc(N3CCNCC3)nc21
EC50 [1]: 120 nM
EC50 [4]: 578 nM
Activity [5]: 76%
EC50 [6]: 998 nM
Ki [8]: 2 nM
Ki ([9]; cho): Not Active
Activity [2]: 95%

Clc1ccccc1OC1CCc2ccc(N3CCNCC3)nc21 (stereo not given)
EC50 [1]: 0.1 nM
EC50 [4]: 236 nM
Activity [5]: 75%
EC50 [6]: 187 nM
Activity [7]: 50%
Ki [8]: 3.8 nM
Ki ([9]; cho): Not Active
Activity [2]: 93%

c1cc2occc2c(N2CCNCC2)n1
EC50 [1]: 164 nM
Activity [2]: 67%

Cc1csc2c(OCc3cccc(Cl)c3)nc(N3CCNCC3)nc12
IC50 [3]: 126 nM

Clc1cccc(COc2nc(N3CCNCC3)nc3ccsc23)c1
EC50 [1]: 2600 nM
Activity [2]: 43%

Clc1ccccc1O[C@H]1CCCc2ccc(N3CCNCC3)nc21
EC50 [1]: 10 nM
EC50 [4]: 70 nM
Activity [5]: 93%
EC50 [6]: 397 nM
Ki [8]: 0.7 nM
Ki ([9]; cho): Not Active
Activity [2]: 97%

Clc1ccccc1O[C@H]1CCc2ccc(N3CCNCC3)nc21
EC50 [1]: 0.1 nM
EC50 [4]: 87 nM
Activity [5]: 87%
EC50 [6]: 300 nM
Activity [7]: 58%
Ki [8]: 1 nM
Ki ([9]; cho): Not Active
Activity [2]: 92%

COc1nc(N2CCNCC2)nc2c1CCCC2
EC50 [1]: 5000 nM
Activity [2]: 53%

c1ccc2c(c1)sc1c(N3CCNCC3)ncnc12
Activity [2]: 31%

c1cc2sccc2c(N2CCNCC2)n1
EC50 [1]: 187 nM
Activity [2]: 60%

c1nc(N2CCNCC2)c2ccsc2n1
EC50 [1]: 530 nM
Activity [2]: 74%

C[C@@H]1CNCCN1c1ccc2c(n1)[C@@H](Oc1ccccc1Cl)CC2
Ki [10]: 0.6 nM

Clc1cccc(COc2nc(N3CCNCC3)nc3sccc23)c1
EC50 [1]: 1200 nM
Activity [2]: 53%

Clc1nc(N2CCNCC2)nc2sccc12
EC50 [1]: 616 nM
Activity [2]: 69%

Clc1ccccc1O[C@@H]1CCc2ccc(N3CCNCC3)nc21
EC50 [1]: 22 nM
EC50 [4]: 1310 nM
Activity [5]: 46%
EC50 [6]: 748 nM
Activity [7]: 21%
Ki [8]: 41 nM
Ki ([9]; cho): Not Active
Activity [2]: 97%
